Data reported in ChEMBL document CHEMBL5230122, “Natural products and other inhibitors of F1FO ATP synthase” (Eur J Med Chem, 2020).
Square brackets hold non-standard residues; d marks the D form. Peptide text beside a SMILES is read from it. * marks the point of attachment. X3 = CC(C)C[C@@H](CN1CCC[N+]2=C1CCC2)N*; X4 = CC(C)C[C@@H](C[N+]1=C2CCCN2CCC1)N*; Pip = O=C(O)[C@@H]1CCCCN1; Iva = CC[C@](C)(N)C(=O)O; Aib = CC(C)(N)C(=O)O; βAla = NCCC(=O)O

Key:
MCF7 = test: Antiproliferative activity against human MCF7 cells assessed as reduction in cell viability incubated for 48 hrs by MTT assay; type: functional, cell-based; settings: MCF7, 48 h
SMMC-7721 = test: Antiproliferative activity against human SMMC-7721 cells assessed as reduction in cell viability incubated for 48 hrs by MTT assay; type: functional, cell-based; settings: SMMC-7721, 48 h
SW480 = test: Antiproliferative activity against human SW480 cells assessed as reduction in cell viability incubated for 48 hrs by MTT assay; type: functional, cell-based; settings: SW480, 48 h
A549 = test: Antiproliferative activity against human A549 cells assessed as reduction in cell viability incubated for 48 hrs by MTT assay; type: functional, cell-based; settings: A549, 48 h
HL-60 = test: Antiproliferative activity against human HL-60 cells assessed as reduction in cell viability incubated for 48 hrs by MTT assay; type: functional, cell-based; settings: HL-60, 48 h
Bos taurus = species: Bos taurus; test: Inhibition of bovine F0F1-ATPase at 50 uM
MDA-MB-231 = test: Antiproliferative activity against human MDA-MB-231 cells assessed as reduction in cell viability incubated for 48 hrs by MTT assay; type: functional, cell-based; settings: MDA-MB-231, 48 h
SNU-398 = test: Anticancer activity against human SNU-398 cells expressing high level of SALL4 assessed as reduction in cell viability incubated for 72 hrs by CellTiter-Glo assay; type: functional, cell-based; settings: SNU-398, 72 h
[1] = Antiproliferative activity against human Keratinocyte assessed as inhibition of cell proliferation incubated for 2 days by Beckman Coulter analysis; type: functional, cell-based; settings: 48 h
HCT-116 = test: Antitumor activity against human HCT-116 cells assessed as reduction in cell viability incubated for 72 hrs by MTT assay; type: functional, cell-based; settings: HCT-116, 72 h
K562 = test: Antitumor activity against human K562 cells assessed as reduction in cell viability incubated for 72 hrs by MTT assay; type: functional, cell-based; settings: K562, 72 h
NCI-H292 = test: Anticancer activity against human NCI-H292 cells assessed as reduction in cell proliferation incubated for 48 hrs by Calcein AM and Pluronic F-127 staining based fluorescence plate reader analysis; type: functional; settings: NCI-H292, 48 h

CC[C@H]1O[C@@]2(C)[C@H](OCCC(=O)O)[C@@]1(C)O[C@@H](/C=C/C=C/C=C/c1oc(=O)cc(OC)c1C)[C@@H]2O
IC50 (MCF7): > 40 µM
IC50 (SMMC-7721): > 40 µM
IC50 (SW480): > 40 µM
IC50 (A549): > 40 µM
IC50 (HL-60): > 40 µM

CC(=O)Oc1ccc(/C=C/c2cc(OCCCC[P+](c3ccccc3)(c3ccccc3)c3ccccc3)cc(OC(C)=O)c2)cc1
inhibition (Bos taurus): > 40%

CC[C@H]1O[C@@]2(C)[C@H](OC(C)=O)[C@@]1(C)O[C@@H](C(O)C(/C=C/C=C/c1oc(=O)cc(OC)c1C)OC)[C@@H]2O (some centres not stated)
IC50 (MCF7): > 40 µM
IC50 (SMMC-7721): > 40 µM
IC50 (SW480): > 40 µM
IC50 (A549): > 40 µM
IC50 (HL-60): > 40 µM

CC[C@@H]1O[C@@](C)(/C=C/C=C/C=C/c2cc(OC)c(C)c(=O)o2)[C@@H](O)[C@]1(C)O
IC50 (MDA-MB-231): > 50 µM

CC[C@](C)(NC(=O)[C@@H]1CCCCN1C(=O)C(C)(C)NC(=O)[C@@H]1CCCCN1C(C)=O)C(=O)NC(C)(C)C(=O)N[C@@H](CC(C)C)C(=O)NCCC(=O)NCC(=O)NC(C)(C)C(=O)NC(C)(C)C(=O)N1CCCC[C@H]1C(=O)NC(C)(C)C(=O)N[C@@H](C)C(=O)N[C@@H](CC(C)C)C(=O)NC(C)(C)C(=O)N[C@@H](CC(C)C)CN1CCC[N+]2=C1CCC2 (Ac-[Pip][Aib][Pip][Iva][Aib]L[βAla]G[Aib][Aib][Pip][Aib]AL[Aib]-X3)
IC50 (SNU-398): 0.005 µM

COc1cc(=O)oc(/C=C/C=C/C=C/[C@]2(C)O[C@]3(C)[C@@H](O)[C@](C)(O[C@@H]3C)[C@H]2O)c1C
IC50 (MDA-MB-231): > 5.43 µM

CN1C(=O)C(Cc2ccc3ccccc3c2)N=C(c2ccc(O)cc2)c2cc(Cl)ccc21 (configuration not stated)
EC50 [1]: 3.1 µM

CC[C@H]1O[C@@]2(C)[C@H](OC(C)=O)[C@@]1(C)O[C@@H](/C=C/C=C/C=C/c1cc(OC)cc(=O)o1)[C@@H]2O
IC50 (MCF7): > 40 µM
IC50 (SMMC-7721): > 40 µM
IC50 (SW480): > 40 µM
IC50 (A549): > 40 µM
IC50 (HL-60): > 40 µM

CC[C@H]1O[C@@]2(C)[C@H](OC(C)=O)[C@@]1(C)O[C@@H](C(O)/C=C/C(/C=C/c1oc(=O)cc(OC)c1C)OC)[C@@H]2O (some centres not stated)
IC50 (MCF7): > 40 µM
IC50 (SMMC-7721): > 40 µM
IC50 (SW480): > 40 µM
IC50 (A549): > 40 µM
IC50 (HL-60): > 40 µM

CC[C@](C)(NC(=O)[C@H](CC(C)C)NC(=O)[C@H](C)NC(=O)C(C)(C)NC(=O)[C@@H]1CCCCN1C(=O)C(C)(C)NC(=O)C(C)(C)NC(=O)CNC(=O)CCNC(=O)[C@H](CC(C)C)NC(=O)C(C)(C)NC(=O)[C@](C)(CC)NC(=O)[C@@H]1CCCCN1C(=O)C(C)(C)NC(=O)[C@@H]1CCCCN1C(C)=O)C(=O)N[C@@H](CC(C)C)C[N+]1=C2CCCN2CCC1 [EFRAPEPTIN G] (Ac-[Pip][Aib][Pip][Iva][Aib]L[βAla]G[Aib][Aib][Pip][Aib]AL[Iva]-X4)
IC50 (SNU-398): 0.009 µM

CN1C(=O)C(Cc2ccc3ccccc3c2)N=C(c2ccc3[nH]c(=O)[nH]c3c2)c2cc(Cl)ccc21 (configuration not stated)
EC50 [1]: 2.1 µM

CCC(=O)[C@@H](C)[C@H](OC(C)=O)[C@@H](C)/C=C/C(=O)O[C@@H]1[C@H](C)[C@H](CC[C@H](/C=C/C=C/C[C@@H](C)[C@H](OC(C)=O)[C@@]2(C)OC=C(C)C2=O)CC)O[C@]2(CC[C@H](C)[C@H](C[C@@H](C)OC(C)=O)O2)[C@H]1C
IC50 (HCT-116): 3.1 µM
IC50 (K562): 0.9 µM

COC[C@@H](C[C@H]1O[C@@](O)([C@H](O)[C@@H]2C[C@H](OC)[C@@H](O)CC/C=C(C)/C=C/[C@@H](O[C@@H]3O[C@@H](C)[C@H](OC)[C@@H](O)[C@@H]3O)[C@H](C)/C=C(C)/C=C(C)/C=C(/C)C(=O)O2)[C@H](C)[C@@H](O)[C@H]1C)O[C@H]1C[C@](C)(O)[C@@H](O[C@H]2C[C@@H](OC)[C@H](O)[C@@H](C)O2)[C@H](C)O1
IC50 (NCI-H292): 0.15 µM

CC[C@H]1O[C@@]2(C)[C@H](O)[C@@]1(C)O[C@@H](/C=C/C=C/C=C/c1oc(=O)cc(OC)c1C)[C@@H]2O
IC50 (MDA-MB-231): 8.79 µM

CC(=O)Oc1cc(/C=C/c2ccc(OCCCC[P+](c3ccccc3)(c3ccccc3)c3ccccc3)cc2)cc(OC(C)=O)c1
inhibition (Bos taurus): > 40%

CC[C@H]1O[C@@]2(C)[C@H](OC(C)=O)[C@@]1(C)O[C@@H](/C=C/C=C/C=O)[C@@H]2O
IC50 (MCF7): > 40 µM
IC50 (SMMC-7721): > 40 µM
IC50 (SW480): > 40 µM
IC50 (A549): > 40 µM
IC50 (HL-60): > 40 µM
